Reference: patent US20070105847A1, “1,3-Dioxane derivatives and analogues thereof useful in the treatment of i.a. obesity and diabetes” (priority 2004, published 2007)

Experiments:
Swiss albino mice = assay: Serum triglyceride and total cholesterol lowering activity in Swiss albino mice; assay type: in vivo; conditions: male Swiss albino mice, oral, 10 mg/kg/day for 6 days, 1 hour after dosing on 6th day
Method: • i) Serum triglyceride and total cholesterol lowering activity in Swiss albino mice:
Male Swiss albino mice (SAM) were bred in Zydus animal house. All these animals were maintained under 12 hour light and dark cycle at 25±1° C. Animals were given standard laboratory chow (NIN, Hyderabad, India) and water ad libitum. SAM of 20-30 g body weight range was used. The protocol approved by Institutional Animal Ethics Committee is being used.
The test compounds were administered orally to Swiss albino mice at 0.001 to 50 mg/kg/day dose for 6 days. The compound was administered after suspending it in 0.25% CMC or dissolving it in water, when compound is water-soluble. Control mice were treated with vehicle (0.25% of Carboxymethylcellulose; dose 10 ml/kg).
The blood samples were collected on 0th day and in fed state 1 hour after drug administration on 6th day of the treatment. The blood was collected in non heparinised capillary and the serum was analyzed for triglyceride and total cholesterol (Wieland, O. Methods of Enzymatic analysis. Bergermeyer, H., O., Ed., 1963. 211-214; Trinder, P. Ann. Clin. Biochem. 1969. 6: 24-27). Measurement of serum triglyceride and total cholesterol was done using commercial kits (Zydus-Cadila, Pathline, Ahmedabad, India).
Percentage reduction in triglycerides/total cholesterol were calculated according to the formula: [formula]
OC=Zero day control group value OT=Zero day treated group value TC=Test day control group TT=Test day treated group

[1] = test system: Hamster of Syrian golden stain; assay: Serum triglyceride and total cholesterol lowering activity in Hamster of Syrian golden strain on HF-HC diet; assay type: in vivo; conditions: hamsters on HF-HC diet, po, 3 mg/kg/day for 15 days
From the text: ii) Surem triglyceride and total cholesterol lowering activity in Hamster of Syrian golden stain:
Male and Female Hamster of Syrian golden stain were bred in Zydus animal house. All these animals were maintained under 12-hour light and dark cycle at 22±3 degree C. The protocol approved by Institutional Animal Ethics Committee is being used. Two groups of animals were put on HF-HC (High fat and high cholesterol) diet for 14 days. On day 14 […] one group of animals of were put on normal diet for two weeks.
One group of animals on HF-HC diet were treated (po) with compounds of the present invention, at 0.001 to 50 mg/kg daily for 15 days while the other group received the vehicle. After 15 days blood samples. were be collected in non heparinized capillary from animals for determination of total cholesterol (TC), triglyceride (TG) (Wieland, O. Methods of Enzymatic analysis. Bergermeyer, H., O., Ed., 1963. 211-214; Trinder, P. Ann. Clin. Biochem. 1969. 6: 24-27). Measurement of serum triglyceride and total cholesterol was done using commercial kits (Pointe Scientific. Inc. USA.)
Percentage reduction in triglycerides/total cholesterol were calculated according to the formula:
• Percentage reduction (%)=(TT−TC)/TC*100
TC=Test day control group TT=Test day treated group.

Row | Compound | % Triglyceride lowering (Swiss albino mice) [%] | % Triglyceride lowering [1] [%]
1 | CC1(C(=O)O)OCC(CCCCOc2ccc(Cc3ccccc3)cc2)CO1 (stereo not shown) [Example 38, 5-[4-(4-Benzyl-phenoxy)-butyl]-2-methyl-[1,3]dioxane-2-carboxylic acid] | 32 | –
2 | CC1(C(=O)O)OCC(CCCCc2ccc(OCc3ccccc3)cc2)CO1 (stereo not shown) [Example 49, 5-[4-(4-Benzyloxy-phenyl)-butyl]-2-methyl-[1,3]dioxane-2-carboxylic acid] | 26 | –
3 | CC1(C(=O)O)OCC(CCCCc2ccc(OS(C)(=O)=O)cc2)CO1 (stereo not shown) [Example 50, 5-[4-(4-Methanesulfonyloxy-phenyl)-butyl]-2-methyl-[1,3]dioxane-2-carboxylic acid] | 32 | 45
